Columns and labels:
in vitro = details: human
Description: Samples were used for measurement of hepcidin between 4–7 hrs after blood drawing and/or pooled and/or stored in aliquots at various temperatures for prolonged periods of time.
Fresh samples were measured within 2–4 hrs hours after blood drawing and stored in aliquots at various temperatures for prolonged incubation.
Mass-to-charge (m/z) spectra were generated by using MALDI-TOF MS (Microflex LT, Bruker Daltonics). Spectra were analyzed by using Bruker Daltonics FlexAnalysis software. […] Total hepcidin concentration was defined as the sum of hepcidin-25, -24, -22, and -20 concentrations.
Using the novel heavy hepcidin-25 internal standard, we assessed changes in hepcidin-25 and the smaller isoforms in various samples containing various anticoagulants ex vivo at room temperature (RT), 4°C, −20°C and −80°C. More specifically, changes in hepcidin concentrations relative to those found in freshly collected samples were determined i) at storage at RT and 4°C on day 0 (fresh samples), 1 (14–22 hrs), 2, 3, and 7 days after sampling/storage, ii) at −20°C after 1 week, and after 1, 4 and 6 months of storage and iii) at −80°C at after 6 months of storage.

[1] = Stability of hepcidin in plasma/serum at room temperature (WCX-TOF MS); type: in vitro ADME, human
Description: Spectra were analyzed by using Bruker Daltonics FlexAnalysis software.
To assess the stability of hepcidin in serum and plasma matrices, we kept samples from intensive care patients (n = 20) and healthy controls (n = 5) at room temperature for 0–7 days followed by WCX-TOF MS analysis using the hepcidin-25^+40 internal standard. […] For the samples at day 1 and day 7, the mean decrease in hepcidin-25 for the 5 controls and 20 intensive care patients was 90% (CV, 8% ) and 55% (CV, 23%), respectively (Table 3).

Which remaining at 1 mnt (in vitro; EDTA plasma) does the source give for `CC[C@H](C)[C@@H]1NC(=O)[C@@H](NC(=O)[C@@H](NC(=O)[C@@H]2CCCN2C(=O)[C@H](Cc2ccccc2)NC(=O)[C@H](Cc2c[nH]cn2)NC(=O)[C@@H](NC(=O)[C@@H](N)CC(=O)O)[C@@H](C)O)[C@@H](C)CC)CSSC[C@@H](C(=O)N[C@@H](CCCCN)C(=O)N[C@H](C(=O)O)[C@@H](C)O)NC(=O)[C@@H]2CSSC[C@H](NC(=O)[C@H](Cc3ccccc3)NC1=O)C(=O)N[C@H]1CSSC[C@H](NC(=O)[C@H](CCCCN)NC(=O)[C@H](CO)NC(=O)[C@H](CCCNC(=N)N)NC(=O)[C@H](Cc3c[nH]cn3)NC(=O)[C@@H]3CSSC[C@H](NC(=O)CNC1=O)C(=O)N3)C(=O)NCC(=O)N[C@@H](CCSC)C(=O)N2` [Hepcidin-25] here?
The remaining at 1 mnt was 94%.

What about the remaining at 4 mnts (in vitro; EDTA plasma) of the same molecule?
The remaining at 4 mnts was 92%.

And the remaining at 6 months (in vitro; EDTA plasma)?
The remaining at 6 months was 88%.

What about the remaining at 168 h (in vitro; EDTA plasma) of the same molecule?
The remaining at 168 h was 89%.

What about the remaining at 672 h (in vitro; EDTA plasma) of the same molecule?
The remaining at 672 h was 99%.

What about the remaining at 1 mnt (in vitro; citrate plasma) of the same molecule?
Its remaining at 1 mnt is 95%.

What about the remaining at 4 mnts (in vitro; citrate plasma) of the same molecule?
Its remaining at 4 mnts is 102%.

What about the remaining at 6 mnts (in vitro; citrate plasma) of the same molecule?
Its remaining at 6 mnts is 97%.

And the remaining at 168 h (in vitro; citrate plasma)?
Its remaining at 168 h is 97%.

What about the remaining at 1 mnt (in vitro; heparin plasma) of the same molecule?
The remaining at 1 mnt was 92%.

And the remaining at 4 mnts (in vitro; heparin plasma)?
Its remaining at 4 mnts is 100%.

What about the remaining at 6 mnts (in vitro; heparin plasma) of the same molecule?
The remaining at 6 mnts was 83%.

And the remaining at 168 h (in vitro; heparin plasma)?
Its remaining at 168 h is 96%.

And the remaining at 672 h (in vitro; heparin plasma)?
Its remaining at 672 h is 97%.

And the remaining at 1 mnt (in vitro; serum)?
The remaining at 1 mnt was 96%.

What about the remaining at 4 mnts (in vitro; serum) of the same molecule?
The remaining at 4 mnts was 98%.

And the remaining at 6 mnts (in vitro; serum)?
Its remaining at 6 mnts is 99%.

And the remaining at 168 h (in vitro; serum)?
The remaining at 168 h was 97%.

And the “Hepcidin level after one week at RT” value ([1]; average, % of fresh sample, 7 days, human heparin plasma, 19 IC patients + 5 controls, results <1.0 nM removed, WCX-TOF MS, hepcidin-25^+40 internal standard, CV (Hep-25/-24/-22/-20/Total) 23/29/29/38/17, n = 24/15/13/18/11)?
Its value is 55%.

And the “Hepcidin level after one day at RT” value ([1]; average, % of fresh sample, human heparin plasma, 19 IC patients + 5 controls, results <1.0 nM removed, WCX-TOF MS, hepcidin-25^+40 internal standard, CV (Hep-25/-24/-22/-20/Total) 8/21/14/25/5, n = 24/15/13/18/11)?
Its value is 90%.

What about the “Hepcidin level after one week at RT, without protease inhibitors” value ([1]; average, % of fresh, 7 days, heparin plasma, 10 IC patients, results <1 nM excluded, CV (Hep-25/-24/-22/-20) 30/31/23/41, n = 10/8/7/8) of the same molecule?
Its value is 48%.

What about the “Hepcidin level after one day at RT, without protease inhibitors” value ([1]; average, % of fresh, heparin plasma, 10 IC patients, results <1 nM excluded, CV (Hep-25/-24/-22/-20) 13/20/11/11, n = 10/8/7/8) of the same molecule?
The value was 89%.

What about the “mean hepcidin-25 level remaining at day 1 at RT, % of fresh” value ([1]; heparin plasma, 5 controls and 20 intensive care patients, CV 8%) of the same molecule?
The value was 90%.

And the “effect of protease inhibitors on hepcidin-25 decrease” value ([1]; heparin samples of IC patients (n = 10), RT)?
The value was “prevented hepcidin-25 processing to a certain extend but did not block its decrease completely”.

What about the remaining at 168 h ([1]; human, average, % of fresh, 7 days, heparin plasma, 10 IC patients, Complete Mini (Roche), CV (Hep-25/-24/-22/-20) 25/35/9/25, n = 10/8/7/8, read-out: Hepcidin level after one week at RT, with protease inhibitors) of the same molecule?
The remaining at 168 h was 69%.

What about the remaining at 1 day ([1]; human, average, % of fresh, heparin plasma, 10 IC patients, Complete Mini (Roche), 1 tablet in 200 µL PBS, 20 µL per 1 ml plasma, CV (Hep-25/-24/-22/-20) 8/30/4/14, n = 10/8/7/8, read-out: Hepcidin level after one day at RT, with protease inhibitors) of the same molecule?
The remaining at 1 day was 91%.
